EP0224249A1, “Amorphous benzimidazole derivatives” (SYNTEX (U.S.A.) INC., priority 1985, dated 1987)
One block for each compound: values may come before it.

Tests used:
[1] = administered to humans; cited from earlier work
[2] = system: Ostertagia spp.; test: Anthelmintic efficacy in naturally infected goats, necropsy on day 6 post-treatment; type: in vivo; details: necropsy day 6 post-treatment
Method: (§1) (A) Fifteen (15) goats, preferably from a single source, known to be infected with nematode parasites as evidenced by positive fecal egg counts are used. The animals would be preferably of one sex. They will have been to be contaminated with goat parasite eggs and larvae, particularly Ostertagia spp. (hereinafter "Ost") and Trichostrongylus spp. (hereinafter "Tri") • 1. - Control • 2. - 9 mg amorphous oxfendazole/kg • 3. - 15 mg oxfendazole/kg Animals are then subjected to necropsy on day 6 post-treatment. Gastrointestinal tract, lungs, and liver are examined using standard parasitological techniques for nematode and trematode parasites.

[3] = system: Trichostrongylus spp.; test: as above; type: in vivo; details: necropsy day 6 post-treatment
Method: as §1

[4] = system: Nematodirus spp.; test: Anthelmintic efficacy in sheep carrying oxfendazole-resistant nematodes; type: in vivo
Method: (§2) Animals are then subjected to necropsy on day 6 post-treatment. Gastrointestinal tract, lungs, and liver are examined using standard parasitological techniques for nematode and trematode parasites.
(§3) (B) Sheep carrying nematodes with varying degrees of resistance to oxfendazole were treated with either levamisole, oxfendazole, or amorphous oxfendazole in accordance with the above procedure.
(§4) • Ost = Ostertagia spp. • Tri = Trichostrongylus spp. • Nem = Nematodirus spp. • Oes = Oesophagostomum spp. • Tr.o = Trichuris ovis

[5] = system: Oesophagostomum spp.; test: as above; type: in vivo
Method: as §2, §3, §4

[6] = system: Ostertagia spp.; test: as above; type: in vivo
Method: as §2, §3, §4

[7] = system: Trichostrongylus spp.; test: as above; type: in vivo
Method: as §2, §3, §4

[8] = system: Trichuris ovis; test: as above; type: in vivo
Method: as §2, §3, §4

[9] = system: nematode parasites; test: Overall comparison of the goat and sheep efficacy studies; type: in vivo; details: goat and sheep studies together
Excerpt: (A) Fifteen (15) goats, preferably from a single source, known to be infected with nematode parasites as evidenced by positive fecal egg counts are used. The animals would be preferably of one sex. They will have been to be contaminated with goat parasite eggs and larvae, particularly Ostertagia spp. (hereinafter "Ost") and Trichostrongylus spp. (hereinafter "Tri")
as §2, §3

[10] = Blood plasma levels after oral administration to dogs; type: in vivo; details: 10 mg/kg; for Area Under the Curve / Area Under the Curve, mean (n = 6): plasma concentration vs time, 18720 min
Method: Dogs were administered orally either amorphous or crystalline oxfendazole at a dose of 10 mg/kg.
Blood samples were drawn and analyzed before administration and on days 1, 2, 3, 7, 10, and 13 following administration. The area under the curve was calculated for plasma concentration vs time profile.

[11] = Dissolution rate at pH 2; type: physicochemical
Excerpt: The dissolution rate of amorphous fenbendazole versus crystalline fenbendazole at pH 2 was studied as a model for showing the bioavailability of the amorphous compound.

Compound: COC(=O)Nc1nc2ccc(C(=O)c3ccccc3)cc2[nH]1 [crystalline mebendazole, methyl 5-benzoyl-lH-benzimidazol-2-yl carbamate]
absorbed [1]: 3-4%

Area Under the Curve ([10]; Dog No. A): 20465.0 ng/ml hr
Area Under the Curve ([10]; Dog No. B): 9717.5 ng/ml hr
Area Under the Curve ([10]; Dog No. C): 11592.5 ng/ml hr
Area Under the Curve ([10]; Dog No. D): 24245.0 ng/ml hr
Area Under the Curve ([10]; Dog No. E): 12653.8 ng/ml hr
Area Under the Curve ([10]; Dog No. F): 25475.0 ng/ml hr
plasma level of oxfendazole compared with oxfendazole in commercially available form ([10]; dogs): higher plasma level of oxfendazole
Area Under the Curve, mean (n = 6) ([10]; dogs): 17358.1 ng/ml hr
Compound: COC(=O)Nc1nc2ccc([S+]([O-])c3ccccc3)cc2[nH]1 (stereo not drawn) [amorphous oxfendazole, methyl 5-(phenylsulfinyl)-lH-benzimidazol-2-yl carbamate]
Percent Efficacy Ost ([2]; 9 mg/kg): 70%
Percent Efficacy Tri ([3]; 9 mg/kg): 98%
Percent Efficacy Nem ([4]; 3 mg/kg): 57%
Percent Efficacy Nem ([4]; 6 mg/kg): 82%
Percent Efficacy Oes ([5]; 3 mg/kg): 100%
Percent Efficacy Oes ([5]; 6 mg/kg): 100%
Percent Efficacy Ost ([6]; 3 mg/kg): 55%
Percent Efficacy Ost ([6]; 6 mg/kg): 22%
Percent Efficacy Tri ([7]; 3 mg/kg): 100%
Percent Efficacy Tri ([7]; 6 mg/kg): 100%
Percent Efficacy Tr. o ([8]; 3 mg/kg): 9.5%
Percent Efficacy Tr. o ([8]; 6 mg/kg): 69%
dose for approximately equivalent efficacy, relative to that required for oxfendazole [9]: about 60%

Compound: COC(=O)Nc1nc2ccc(Sc3ccccc3)cc2[nH]1 [amorphous fenbendazole, methyl 5-(phenylthio)-lH-benzimidazol-2-yl carbamate]
% Dissolved ([11]; pH 2, 5 min): 73%
% Dissolved ([11]; pH 2, 15 min): 91%
% Dissolved ([11]; pH 2, 30 min): 125%
% Dissolved ([11]; pH 2, 60 min): 130%
% Dissolved ([11]; pH 2, 90 min): 112%
solubility compared with crystalline fenbendazole ([11]; pH 2, over time): more soluble than crystalline fenbendazole and remains more soluble over time

Area Under the Curve ([10]; Dog No. A, listed as Crystalline Ox.): 2700.0 ng/ml hr
Area Under the Curve ([10]; Dog No. B, listed as Crystalline Ox.): 2622.0 ng/ml hr
Area Under the Curve ([10]; Dog No. C, listed as Crystalline Ox.): 2130.0 ng/ml hr
Area Under the Curve ([10]; Dog No. D, listed as Crystalline Ox.): 3341.0 ng/ml hr
Area Under the Curve ([10]; Dog No. E, listed as Crystalline Ox.): 3107.5 ng/ml hr
Area Under the Curve ([10]; Dog No. F, listed as Crystalline Ox.): 4149.5 ng/ml hr
Area Under the Curve, mean (n = 6) ([10]; dogs, listed as Crystalline Ox.): 3008.4 ng/ml hr
Compound: COC(=O)Nc1nc2ccc([S+]([O-])c3ccccc3)cc2[nH]1 (stereo not drawn) [oxfendazole, methyl 5-(phenylsulfinyl)-lH-benzimidazol-2-yl carbamate]
Percent Efficacy Ost ([2]; 15 mg/kg): 77%
Percent Efficacy Tri ([3]; 15 mg/kg): 80%
Percent Efficacy Nem ([4]; 5 mg/kg): 22%
Percent Efficacy Nem ([4]; 10 mg/kg): 80%
Percent Efficacy Oes ([5]; 5 mg/kg): 100%
Percent Efficacy Oes ([5]; 10 mg/kg): 100%
Percent Efficacy Ost ([6]; 5 mg/kg): 0%
Percent Efficacy Ost ([6]; 10 mg/kg): 28%
Percent Efficacy Tri ([7]; 5 mg/kg): 100%
Percent Efficacy Tri ([7]; 10 mg/kg): 99.7%
Percent Efficacy Tr. o ([8]; 5 mg/kg): 38%
Percent Efficacy Tr. o ([8]; 10 mg/kg): 62%

Compound: COC(=O)Nc1nc2cc(Sc3ccccc3)ccc2[nH]1 [crystalline fenbendazole, methyl 5-(phenylthio)-lH-benzimidazol-2-yl carbamate]
% Dissolved ([11]; pH 2, 5 min): 21%
% Dissolved ([11]; pH 2, 15 min): 22%
% Dissolved ([11]; pH 2, 30 min): 46%
% Dissolved ([11]; pH 2, 60 min): 41%
% Dissolved ([11]; pH 2, 90 min): 25%

Compound: c1ccc([C@H]2CN3CCSC3=N2)cc1 [Levamisole]
Percent Efficacy Nem ([4]; 8 mg/kg): 100%
Percent Efficacy Oes ([5]; 8 mg/kg): 100%
Percent Efficacy Ost ([6]; 8 mg/kg): 98%
Percent Efficacy Tri ([7]; 8 mg/kg): 49%
Percent Efficacy Tr. o ([8]; 8 mg/kg): 37%
